Data published in ChEMBL document CHEMBL5150075 (J Med Chem, 2022).
The source made the active and inactive calls. The rule behind the calls is not given here.

Key:
DU-145 [1] = assay: Induction of apoptosis in human DU-145 cells assessed as early apoptotic cells at 0.1 uM incubated for 48 hrs by Annexin V-FITC/PI staining based flow cytometry analysis (reference value: 1.97%); format: functional
[2] = Stability in monkey liver microsomes assessed as half life incubated in presence of NADPH by LC-MS/MS analysis; format: ADME, Macaca mulatta, Microsome; details: rhesus monkey
NCI-H1437 = assay: Antiproliferative activity against human NCI-H1437 cells assessed as inhibition of cell growth incubated for 72 hrs by MTT assay; format: functional, cell-based; details: NCI-H1437, 72 h
MCF7 = assay: cells; details: Homo sapiens, MCF7, 72 h
Description: Antiproliferative activity against human MCF7 cells assessed as inhibition of cell growth incubated for 72 hrs by MTT assay

[3] = Toxicity in specific pathogen-free Kunming mouse assessed as reduction in body weight at 10 mg/kg, po administered once daily and measured for 7 days; format: organism-based; details: in vivo, 168 h, time 7 day
[4] = Clearance in Kunming mouse at 2 mg/kg, iv by LC-MS/MS analysis; format: ADME, organism-based; details: in vivo
DU-145 [5] = assay: Antitumor activity against human DU-145 cells xenografted in BALB/c nude mouse assessed as tumor growth inhibition at 5 mg/kg, po administered once daily and measured twice a week relative to control; format: functional; details: read-out: TGI
[6] = Toxicity in C57BL/6 mouse implanted with mouse B16-F10 cells assessed as […] at 20 mg/kg, po administered once daily and measured twice a week for 14 days; format: organism-based; details: in vivo, 336 h, time 14 day
DU-145 [7] = assay: Induction of apoptosis in human DU-145 cells assessed as late apoptotic cells at 0.1 uM incubated for 48 hrs by Annexin V-FITC/PI staining based flow cytometry analysis (reference value: 2.05%); format: functional
DU-145 [8] = assay: Antiproliferative activity against human DU-145 cells assessed as inhibition of cell growth incubated for 72 hrs by real-time cell analysis; format: functional, cell-based; details: DU-145, 72 h
[9] = Toxicity in specific pathogen-free Kunming mouse assessed as pathological changes in colon tissues at 10 mg/kg, po administered once daily and measured after 7 days by hematoxylin and eosin staining based analysis; format: organism-based; details: in vivo, 168 h, time 7 day
DU-145 [10] = assay: Induction of G2/M phase cell cycle arrest in human DU-145 cells assessed as increase in histone H3 phosphorylation at Ser10 residue at 0.03 to 0.3 uM measured after 12 hrs by Western blot analysis; format: functional, cell-based; details: dose 0.03-0.3 µM
DU-145 [11] = assay: Antitumor activity against human DU-145 cells xenografted in BALB/c nude mouse assessed as tumor growth inhibition at 10 mg/kg, po administered once daily and measured twice a week relative to control; format: functional; details: read-out: TGI
[12] = AUC (0 to t) in Kunming mouse at 2 mg/kg, iv by LC-MS/MS analysis; format: ADME, organism-based; parameters: dose 2 mg/kg, route iv; details: in vivo
DU-145 [13] = assay: Induction of apoptosis in human DU-145 cells assessed as live cells at 0.3 uM incubated for 48 hrs by Annexin V-FITC/PI staining based flow cytometry analysis (reference value: 94.94%); format: functional
[14] = Cytotoxicity against African green monkey Vero cells assessed as reduction in cell viability measured after 48 hrs; format: toxicity, cell-based, Chlorocebus sabaeus
DU-145 [15] = assay: Induction of apoptosis in human DU-145 cells assessed as live cells at 0.1 uM incubated for 48 hrs by Annexin V-FITC/PI staining based flow cytometry analysis (reference value: 94.94%); format: functional
DU-145 [16] = assay: Induction of apoptosis in human DU-145 cells assessed as late apoptotic cells at 0.3 uM incubated for 48 hrs by Annexin V-FITC/PI staining based flow cytometry analysis (reference value: 2.05%); format: functional
DU-145 [17] = assay: Induction of apoptosis in human DU-145 cells assessed as early apoptotic cells at 0.3 uM incubated for 48 hrs by Annexin V-FITC/PI staining based flow cytometry analysis (reference value: 1.97%); format: functional
[18] = molecular target: Sodium channel protein type 5 subunit alpha (Homo sapiens, UniProt Q14524); assay: Inhibition of human Nav1.5 expressed in CHO cells by manual patch clamp method; format: toxicity, cell-based
[19] = molecular target: Voltage-gated inwardly rectifying potassium channel KCNH2 (Homo sapiens, UniProt Q12809); assay: Inhibition of hERG expressed in CHO cells by whole cell patch clamp method; format: toxicity, cell-based
DU-145 [20] = assay: Induction of apoptosis in human DU-145 cells assessed as dead cells at 0.3 uM incubated for 48 hrs by Annexin V-FITC/PI staining based flow cytometry analysis (reference value: 1.05%); format: functional
HepG2 = assay: cells; details: Homo sapiens, HepG2, 72 h
[21] = Toxicity in BALB/c nude mouse xenografted with human DU-145 cells assessed as reduction in body weight at 5 mg/kg, po administered once daily and measured twice a week; format: organism-based; details: in vivo
Tubulin (Homo sapiens) [22] = molecular target: T1, Tubulin (Homo sapiens) (UniProt P68371+Q9H4B7+P0DPH7+P68366+Q13509+Q71U36+P04350+Q3ZCM7+P07437+P68363+Q9BQE3+Q6PEY2+Q13885+Q9BVA1+Q9BUF5); assay: Disruption of microtubule network in human DU-145 cells assessed as cell shrinkage at 0.1 uM incubated for 16 hrs by Hoechst staining based confocal microscopy analysis
MDA-MB-231 = assay: cells; details: Homo sapiens, MDA-MB-231, 72 h
HUVEC = assay: Anti-angiogenesis activity against HUVEC cells assessed as inhibition of cell growth incubated for 72 hrs by MTT assay; format: functional, cell-based; details: Homo sapiens
[23] = Resistance index, ratio of IC50 for antiproliferative activity against paclitaxel-resistant human A549 cells to IC50 for antiproliferative activity against human A549 cells; format: functional
Bos taurus = organism: Bos taurus; assay: Inhibition of bovine brain tubulin polymerization measured every 30 secs by absorbance based analysis; details: dose 1-10 µM, time 30.0 sec, DDE = dose-dependent effect
A549 = assay: cells; details: Homo sapiens, A549, 72 h
[24] = Mutagenicity in Salmonella typhimurium TA-98 at 0.5 to 500 ug per plate incubated for 72 hrs in presence or absence of S9 fraction by Ames test; format: toxicity, Salmonella enterica subsp. enterica serovar Typhimurium; details: in vivo, dose 0.5-500 µg
Tubulin (Homo sapiens) [25] = molecular target: T1, Tubulin (Homo sapiens); assay: Disruption of microtubule network in human DU-145 cells assessed as reduction in alpha tubulin expression by Western blot analysis; format: cell-based; details: dose 0.03-0.3 µM
DU-145 [26] = assay: Induction of apoptosis in human DU-145 cells assessed as increase in cleaved caspase 3 level at 0.003 to 0.3 uM incubated for 48 hrs by Western blot analysis; format: functional, cell-based; details: dose 0.003-0.3 µM
[27] = Toxicity in po dosed ICR mouse assessed as maximum tolerated dose measured on day 14; format: organism-based; details: in vivo, time 14 day
DU-145 [28] = assay: Induction of apoptosis in human DU-145 cells assessed as early apoptotic cells at 0.03 uM incubated for 48 hrs by Annexin V-FITC/PI staining based flow cytometry analysis (reference value: 1.97%); format: functional
[29] = Mutagenicity in Salmonella typhimurium TA-100 at 0.5 to 500 ug per plate incubated for 72 hrs in presence or absence of S9 fraction by Ames test; format: toxicity, Salmonella enterica subsp. enterica serovar Typhimurium; details: in vivo, dose 0.5-500 µg
[30] = Toxicity in specific pathogen-free Kunming mouse assessed as pathological changes in liver at 10 mg/kg, po administered once daily and measured after 7 days by hematoxylin and eosin staining based analysis; format: organism-based; details: in vivo, 168 h, time 7 day

Sequence of Sodium channel protein type 5 subunit alpha (Q14524 whole entry): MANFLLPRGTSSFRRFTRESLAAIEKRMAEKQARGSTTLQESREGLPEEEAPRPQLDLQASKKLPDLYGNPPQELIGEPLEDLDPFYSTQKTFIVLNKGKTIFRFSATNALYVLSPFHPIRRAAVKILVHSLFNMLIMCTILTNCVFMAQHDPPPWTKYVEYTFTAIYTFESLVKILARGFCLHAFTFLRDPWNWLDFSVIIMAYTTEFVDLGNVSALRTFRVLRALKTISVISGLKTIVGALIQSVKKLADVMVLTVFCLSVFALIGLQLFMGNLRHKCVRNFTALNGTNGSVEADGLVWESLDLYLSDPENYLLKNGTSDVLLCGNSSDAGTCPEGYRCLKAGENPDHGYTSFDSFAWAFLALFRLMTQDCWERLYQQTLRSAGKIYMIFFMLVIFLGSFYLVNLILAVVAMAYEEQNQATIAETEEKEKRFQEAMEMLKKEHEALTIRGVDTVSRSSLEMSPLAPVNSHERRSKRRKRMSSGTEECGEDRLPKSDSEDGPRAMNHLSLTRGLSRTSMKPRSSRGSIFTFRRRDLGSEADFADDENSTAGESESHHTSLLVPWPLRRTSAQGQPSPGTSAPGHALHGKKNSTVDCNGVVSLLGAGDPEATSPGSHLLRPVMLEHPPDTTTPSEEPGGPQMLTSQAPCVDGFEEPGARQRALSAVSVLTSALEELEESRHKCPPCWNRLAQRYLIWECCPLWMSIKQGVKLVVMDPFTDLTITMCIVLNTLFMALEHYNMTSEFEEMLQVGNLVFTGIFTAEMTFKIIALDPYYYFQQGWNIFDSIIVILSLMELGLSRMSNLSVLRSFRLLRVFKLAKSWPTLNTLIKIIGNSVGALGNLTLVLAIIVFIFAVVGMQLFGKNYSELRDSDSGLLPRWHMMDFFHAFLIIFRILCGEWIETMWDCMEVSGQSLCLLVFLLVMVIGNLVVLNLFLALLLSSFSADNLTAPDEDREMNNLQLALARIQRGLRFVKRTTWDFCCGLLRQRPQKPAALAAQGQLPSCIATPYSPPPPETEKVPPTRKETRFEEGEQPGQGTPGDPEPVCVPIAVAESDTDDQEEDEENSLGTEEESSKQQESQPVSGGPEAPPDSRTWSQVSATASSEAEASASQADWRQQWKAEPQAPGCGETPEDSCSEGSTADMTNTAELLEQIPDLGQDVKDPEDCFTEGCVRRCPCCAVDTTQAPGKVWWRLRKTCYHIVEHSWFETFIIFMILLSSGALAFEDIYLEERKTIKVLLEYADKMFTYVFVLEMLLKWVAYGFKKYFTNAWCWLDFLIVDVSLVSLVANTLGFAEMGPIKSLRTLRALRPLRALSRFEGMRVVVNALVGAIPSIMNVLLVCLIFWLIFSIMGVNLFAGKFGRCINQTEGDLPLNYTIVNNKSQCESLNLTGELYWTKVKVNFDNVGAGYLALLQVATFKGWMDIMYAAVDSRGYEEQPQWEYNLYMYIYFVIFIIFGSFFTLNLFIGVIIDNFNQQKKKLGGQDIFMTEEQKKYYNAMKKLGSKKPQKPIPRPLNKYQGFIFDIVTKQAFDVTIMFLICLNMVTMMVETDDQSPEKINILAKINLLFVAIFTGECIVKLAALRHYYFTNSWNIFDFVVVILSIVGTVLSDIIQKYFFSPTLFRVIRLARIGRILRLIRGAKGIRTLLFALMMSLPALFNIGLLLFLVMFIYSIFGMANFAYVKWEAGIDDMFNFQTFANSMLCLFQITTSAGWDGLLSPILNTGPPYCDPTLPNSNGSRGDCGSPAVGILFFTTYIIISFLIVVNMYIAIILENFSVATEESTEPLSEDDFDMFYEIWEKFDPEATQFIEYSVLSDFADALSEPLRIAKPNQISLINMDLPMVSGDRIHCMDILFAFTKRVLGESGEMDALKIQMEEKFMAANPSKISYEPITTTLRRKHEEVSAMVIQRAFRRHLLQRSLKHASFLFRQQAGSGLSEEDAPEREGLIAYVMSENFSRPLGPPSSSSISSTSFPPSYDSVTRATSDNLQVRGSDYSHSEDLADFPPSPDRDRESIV
Sequence of Voltage-gated inwardly rectifying potassium channel KCNH2 (Q12809 whole entry): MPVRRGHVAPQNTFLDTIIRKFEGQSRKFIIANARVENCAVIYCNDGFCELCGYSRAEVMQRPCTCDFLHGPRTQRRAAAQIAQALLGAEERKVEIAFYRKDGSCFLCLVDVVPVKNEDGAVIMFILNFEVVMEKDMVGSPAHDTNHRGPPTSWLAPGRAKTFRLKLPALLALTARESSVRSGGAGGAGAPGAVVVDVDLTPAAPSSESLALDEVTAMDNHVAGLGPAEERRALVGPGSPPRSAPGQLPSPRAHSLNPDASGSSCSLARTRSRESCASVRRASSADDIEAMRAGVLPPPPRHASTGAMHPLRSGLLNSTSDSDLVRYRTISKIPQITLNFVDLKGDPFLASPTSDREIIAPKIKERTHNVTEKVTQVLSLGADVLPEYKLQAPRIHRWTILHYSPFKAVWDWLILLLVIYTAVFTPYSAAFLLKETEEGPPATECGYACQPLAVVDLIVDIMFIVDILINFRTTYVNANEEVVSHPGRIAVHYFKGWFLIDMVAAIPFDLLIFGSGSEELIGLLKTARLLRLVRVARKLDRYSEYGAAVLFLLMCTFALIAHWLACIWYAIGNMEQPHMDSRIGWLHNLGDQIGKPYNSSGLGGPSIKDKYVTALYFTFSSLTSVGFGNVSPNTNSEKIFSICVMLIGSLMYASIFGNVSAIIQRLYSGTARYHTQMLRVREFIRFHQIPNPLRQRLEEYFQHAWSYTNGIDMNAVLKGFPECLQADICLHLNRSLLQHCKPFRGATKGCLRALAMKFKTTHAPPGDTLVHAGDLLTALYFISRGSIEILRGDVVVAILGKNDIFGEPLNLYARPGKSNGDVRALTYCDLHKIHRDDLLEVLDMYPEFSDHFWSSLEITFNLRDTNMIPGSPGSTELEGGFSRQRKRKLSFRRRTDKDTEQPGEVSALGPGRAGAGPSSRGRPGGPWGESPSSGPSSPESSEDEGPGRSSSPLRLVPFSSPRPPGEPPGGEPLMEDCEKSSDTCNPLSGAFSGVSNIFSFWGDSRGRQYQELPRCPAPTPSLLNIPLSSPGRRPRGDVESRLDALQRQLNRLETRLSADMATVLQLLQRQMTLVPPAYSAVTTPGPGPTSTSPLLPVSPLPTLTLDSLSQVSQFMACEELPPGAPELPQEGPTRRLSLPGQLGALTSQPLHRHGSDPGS

## Cc1ccc(S(=O)(=O)Nc2cc(C(=O)NCc3ccc(C)nc3)ccc2C)cc1
DU-145 [1]
  Activity: 24.79%
[2]
  half-life: 1.58 h
NCI-H1437
  IC50: 2 nM
MCF7
  IC50: 6 nM
[3]
  Activity: Non-Toxic
[4]
  clearance: 61.5 mL/min/kg
DU-145 [5]
  inhibition in vivo at 5 mg/kg: 37.4%
[6]
  Activity: Toxic
DU-145 [7]
  Activity: 26.61%
DU-145 [8]
  IC50: 9 nM
[9]
  Activity: Non-Toxic
DU-145 [10]
  Activity: Active
DU-145 [11]
  inhibition in vivo at 10 mg/kg: 62.8%
[12]
  AUC(0-t): 534 ng·h/mL
DU-145 [13]
  Activity: 37.88%
[14]
  IC50 at 48 h: 40 nM
DU-145 [15]
  Activity: 43.52%
DU-145 [16]
  Activity: 30.32%
DU-145 [17]
  Activity: 26.3%
[18]
  IC50: > 30000 nM
[19]
  IC50: > 10000 nM
DU-145 [20]
  Activity: 5.51%
HepG2
  IC50: 3 nM
[21]
  Activity: Non-Toxic
Tubulin (Homo sapiens) [22]
  Activity: Active
MDA-MB-231
  IC50: 9 nM
HUVEC
  IC50: 32 nM
[23]
  Ratio IC50: 1.2
Bos taurus
  inhibition: Dde
A549
  IC50: 25 nM
[24]
  Activity: Non-Toxic
Tubulin (Homo sapiens) [25]
  Activity: Active
DU-145 [26]
  Activity: Active
[27]
  MTD at 336 h: > 60 mg/kg
DU-145 [28]
  Activity: 13.66%
[29]
  Activity: Non-Toxic
[30]
  Activity: Non-Toxic
